Test results taken from ChEMBL document CHEMBL3871307, “Discovery of Chromane Propionic Acid Analogues as Selective Agonists of GPR120 with in Vivo Activity in Rodents” (ACS Med Chem Lett, 2017).
Calls of active or inactive are those of the source. No cut-off for these calls is given here.

Columns and labels:
[1] = target: T1, Free fatty acid receptor 4 (Homo sapiens, UniProt Q5NUL3); test: Agonist activity at human GPR120 short isoform expressed in CHOK1 cells assessed as increase in IP1 accumulation after 60 mins by HTRF assay; type: functional, cell-based, CHO-K1
T1 sequence (Q5NUL3 whole entry): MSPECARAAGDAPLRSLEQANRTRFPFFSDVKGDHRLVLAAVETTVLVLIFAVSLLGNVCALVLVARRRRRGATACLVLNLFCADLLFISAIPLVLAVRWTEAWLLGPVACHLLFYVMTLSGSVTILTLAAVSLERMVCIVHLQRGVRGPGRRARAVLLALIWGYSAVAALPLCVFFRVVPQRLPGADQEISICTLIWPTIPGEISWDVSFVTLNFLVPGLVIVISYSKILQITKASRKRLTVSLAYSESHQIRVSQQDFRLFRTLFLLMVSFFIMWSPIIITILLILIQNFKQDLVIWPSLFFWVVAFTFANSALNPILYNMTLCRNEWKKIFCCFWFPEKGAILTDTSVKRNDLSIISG

[2] = target: T2, Free fatty acid receptor 4 (Homo sapiens) (UniProt Q5NUL3); test: Agonist activity at human GPR120 short isoform expressed in CHOK1 cells assessed as increase in IP1 accumulation at 10 uM after 60 mins by HTRF assay; type: functional, cell-based; settings: CHO-K1
T2 sequence (whole entry): T1 sequence (Q5NUL3 whole entry)

[3] = target: T1, Free fatty acid receptor 4; test: Agonist activity at human GPR120 short isoform expressed in CHOK1 cells assessed as beta-arrestin recruitment after 90 mins by luminescence assay; type: cell-based, CHO-K1
[4] = target: Free fatty acid receptor 1 (Homo sapiens, UniProt O14842); test: Agonist activity at human GPR40 expressed in HEK293 cells assessed as increase in IP1 accumulation after 60 mins by HTRF assay; type: functional, cell-based
[5] = Protein binding in rat plasma at 0.1 mg/kg administered as iv casette dose by LC/MS/MS analysis; type: ADME, organism-based; settings: read-out: PPB (converted)
[6] = Terminal half life in rat plasma at 0.1 mg/kg administered as iv casette dose by LC/MS/MS analysis; type: ADME, organism-based; settings: read-out: beta t1/2 (converted)
[7] = Volume of distribution at steady state in rat plasma at 0.1 mg/kg administered as iv casette dose by LC/MS/MS analysis; type: ADME, organism-based; settings: read-out: Vdss
[8] = Intrinsic clearance in rat plasma at 0.1 mg/kg administered as iv casette dose by LC/MS/MS analysis; type: ADME, organism-based; settings: in vivo
[9] = Clearance in rat plasma at 0.1 mg/kg administered as iv casette dose by LC/MS/MS analysis; type: ADME, organism-based
[10] = target: T3, Free fatty acid receptor 4 (Mus musculus) (UniProt Q7TMA4); test: (§1) Agonist activity at mouse GPR120 expressed in CHOK1 cells assessed as increase in IP1 accumulation after 60 mins by HTRF assay; type: functional, cell-based; settings: CHO-K1
T3 sequence (whole entry): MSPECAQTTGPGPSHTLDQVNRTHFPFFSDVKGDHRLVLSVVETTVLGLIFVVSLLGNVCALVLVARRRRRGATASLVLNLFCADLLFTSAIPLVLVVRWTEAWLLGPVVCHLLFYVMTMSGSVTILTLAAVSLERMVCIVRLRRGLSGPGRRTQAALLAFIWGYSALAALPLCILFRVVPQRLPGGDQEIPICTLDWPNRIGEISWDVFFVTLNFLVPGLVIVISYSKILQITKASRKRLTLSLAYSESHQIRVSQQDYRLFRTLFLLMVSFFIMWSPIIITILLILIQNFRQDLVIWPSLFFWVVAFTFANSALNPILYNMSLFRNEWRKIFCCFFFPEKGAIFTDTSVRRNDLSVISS

[11] = Plasma concentration in C57BL/6 transverse aortic constriction mouse at 100 mg/kg, po via gavage measured at 3 hrs; type: ADME, organism-based; settings: C57BL/6, mouse
Mus musculus [12] = test: Glucose lowering effect in C57BL/6 transverse aortic constriction mouse assessed as reduction in blood glucose at 100 mg/kg, po pretreated for 60 mins as single dose via gavage followed by dextrose challenge measured up to 120 mins post glucose challenge by OGTT; type: functional, organism-based
[13] = Plasma concentration in C57BL/6 transverse aortic constriction mouse at 30 mg/kg, po via gavage measured at 3 hrs; type: ADME, organism-based; settings: C57BL/6, mouse
Mus musculus [14] = test: Glucose lowering effect in C57BL/6 transverse aortic constriction mouse assessed as reduction in blood glucose at 30 mg/kg, po pretreated for 60 mins as single dose via gavage followed by dextrose challenge measured up to 120 mins post glucose challenge by OGTT; type: functional, organism-based
[15] = Plasma concentration in GPR120 knockout C57BL/6 transverse aortic constriction mouse at 150 mg/kg, po measured at 3 hrs; type: ADME, organism-based; settings: C57BL/6, mouse
[16] = target: T4, Free fatty acid receptor 4 (Mus musculus, UniProt Q7TMA4); test: as §1; type: functional, cell-based, CHO-K1
T4 sequence (Q7TMA4 whole entry): T3 sequence (whole entry)

[17] = target: T4, Free fatty acid receptor 4; test: Agonist activity at mouse GPR120 expressed in human U2OS cells assessed as beta-arrestin recruitment after 90 mins by luminescence assay; type: cell-based
[18] = target: Free fatty acid receptor 1 (Mus musculus, UniProt Q76JU9); test: Agonist activity at mouse GPR40 assessed as increase in IP1 accumulation after 60 mins by HTRF assay; type: functional
[19] = Plasma concentration in wild type C57BL/6 transverse aortic constriction mouse harboring GPR120 at 150 mg/kg, po measured at 3 hrs; type: ADME, organism-based; settings: C57BL/6, mouse
Mus musculus [20] = test: In vivo agonist activity at GPR120 in wild type C57BL/6 transverse aortic constriction mouse assessed as glucose lowering effect at 150 mg/kg, po via gavage pretreated for 60 mins followed by dextrose challenge measured up to 120 mins post glucose challenge by OGTT; type: functional, organism-based

Free fatty acid receptor 1 (Homo sapiens, UniProt O14842), sequence (O14842 whole entry): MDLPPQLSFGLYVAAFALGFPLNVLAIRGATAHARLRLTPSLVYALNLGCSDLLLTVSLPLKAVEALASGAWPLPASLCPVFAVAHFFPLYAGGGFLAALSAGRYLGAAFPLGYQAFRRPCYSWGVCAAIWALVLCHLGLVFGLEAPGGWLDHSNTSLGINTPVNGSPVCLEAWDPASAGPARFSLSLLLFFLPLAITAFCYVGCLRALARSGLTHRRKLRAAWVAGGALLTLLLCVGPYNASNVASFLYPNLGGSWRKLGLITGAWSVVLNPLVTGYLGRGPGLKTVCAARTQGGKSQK
Free fatty acid receptor 1 (Mus musculus, UniProt Q76JU9), sequence (Q76JU9 whole entry): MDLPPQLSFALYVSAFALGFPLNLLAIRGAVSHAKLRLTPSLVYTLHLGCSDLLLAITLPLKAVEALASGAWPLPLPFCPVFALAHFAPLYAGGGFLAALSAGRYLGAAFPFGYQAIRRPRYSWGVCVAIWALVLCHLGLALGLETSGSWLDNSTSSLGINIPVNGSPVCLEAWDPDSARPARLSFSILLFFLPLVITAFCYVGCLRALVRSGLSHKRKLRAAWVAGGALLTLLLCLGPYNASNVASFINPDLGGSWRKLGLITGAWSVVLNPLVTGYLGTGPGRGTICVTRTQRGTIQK

Row | SMILES | EC50 [1] [nM] | Activity [2] [%] | EC50 [3] [nM] | EC50 [4] [nM] | further results
1 | Fc1ccc(OC(F)(F)F)cc1-c1ccc2c(c1)CC[C@H](CCc1nnn[nH]1)O2 | 330 | 17 | 890 | > 10000 | –
2 | COc1cc(OC2CCC2)nc(-c2ccc3c(c2)CC[C@H]([C@@H]2C[C@H]2C(=O)O)O3)c1F | 18 | > 50 | 7.8 | > 10000 | –
3 | O=C(O)CC[C@H]1CCc2cc(-c3cc(OC4CCC4)cc(F)c3F)ccc2O1 | 21 | > 50 | 13 | > 10000 | fraction unbound [5]: 0.0007; half-life [6]: 1.3 h; Vd [7]: 0.45 L/kg; CL [8]: 8700 mL/min/kg; clearance [9]: 5.4 mL/min/kg
4 | COc1cc(O[C@H]2C[C@H](OC)C2)cc(-c2ccc3c(c2)CC[C@H](CCc2nnn[nH]2)O3)c1F | 53 | > 50 | 43 | > 10000 | –
5 | O=C(O)CC[C@@H]1CCc2cc(-c3cc(OC(F)(F)F)ccc3F)ccc2O1 | 180 | > 50 | 42 | > 10000 | –
6 | COc1cc(O[C@H]2C[C@H](OC)C2)cc(-c2ccc3c(c2)CC[C@H]([C@@H]2C[C@H]2C(=O)O)O3)c1F | 55 | > 50 | 78 | > 10000 | –
7 | O=C(O)[C@H]1C[C@@H]1[C@H]1CCc2cc(-c3cc(OC(F)(F)F)ccc3F)ccc2O1 | 320 | > 50 | 130 | > 10000 | –
8 | O=C(O)CC[C@H]1CCc2cc(-c3cc(OC4CCC4)ccc3F)ccc2O1 | 28 | > 50 | 10 | 3600 | –
9 | CO[C@H]1C[C@H](Oc2cc(F)c(F)c(-c3ccc4c(c3)CC[C@H]([C@@H]3C[C@H]3C(=O)O)O4)c2)C1 | 45 | > 50 | 17 | > 10000 | concentration at 3 h [13]: 37.4 µM; Activity (Mus musculus [14]): Active
10 | CO[C@H]1C[C@H](Oc2cc(F)c(F)c(-c3ccc4c(c3)CC[C@H](CCc3nnn[nH]3)O4)c2)C1 | 240 | 24 | 170 | > 10000 | –
11 | O=C(O)CC[C@H]1CCc2cc(-c3nc(OC4CCC4)ccc3F)ccc2O1 | 30 | > 50 | 21 | > 10000 | fraction unbound [5]: 0.0023; half-life [6]: 0.74 h; Vd [7]: 0.23 L/kg; CL [8]: 4500 mL/min/kg; clearance [9]: 9.1 mL/min/kg
12 | O=C(O)CC[C@H]1CCc2cc(-c3cc(OC4CCC4)cnc3F)ccc2O1 | 79 | > 50 | 140 | > 10000 | –

Further compounds by falling EC50 [1], results first:

Row | EC50 [1] [nM] | Activity [2] [%] | EC50 [3] [nM] | EC50 [4] [nM] | SMILES | further results
13 | 250 | > 50 | 230 | 2000 | O=C(O)CC[C@H]1CCc2cc(-c3cc(OC4CCC4)ncc3F)ccc2O1 | –
14 | 220 | 44 | 84 | > 10000 | Fc1ccc(OC2CCC2)cc1-c1ccc2c(c1)CC[C@H](CCc1nnn[nH]1)O2 | Activity [10]: Active; concentration at 3 h [11]: 40.6 µM; Activity (Mus musculus [12]): Active
15 | 170 | > 50 | 17 | 2100 | O=C(O)CC[C@H]1CCc2cc(-c3cc(OC(F)(F)F)ccc3F)ccc2O1 | fraction unbound [5]: 0.0016; half-life [6]: 1.3 h; Vd [7]: 0.64 L/kg; CL [8]: 10500 mL/min/kg; clearance [9]: 9.5 mL/min/kg
16 | 130 | 45 | 150 | > 10000 | COc1cc(OC(F)(F)F)cc(-c2ccc3c(c2)CC[C@H](CCc2nnn[nH]2)O3)c1F | –
17 | 72 | > 50 | 17 | 2200 | O=C(O)CC[C@H]1CCc2cc(-c3cc(OC(F)(F)F)cc(Cl)c3F)ccc2O1 | –
18 | 69 | > 50 | 33 | > 10000 | O=C(O)[C@@H]1C[C@H]1[C@H]1CCc2cc(-c3cc(OC(F)(F)F)ccc3F)ccc2O1 | –
19 | 51 | > 50 | 32 | > 10000 | COc1cc(OC2CC2)cc(-c2ccc3c(c2)CC[C@H](CCc2nnn[nH]2)O3)c1F | –
20 | 40 | > 50 | 8.3 | > 10000 | O=C(O)CC[C@H]1CCc2cc(-c3cc(OC4CCC4)cc(Cl)c3F)ccc2O1 | –
21 | 37 | > 50 | 13 | > 10000 | COc1cc(Oc2ncc(C)s2)cc(-c2ccc3c(c2)CC[C@H](CCC(=O)O)O3)c1F | fraction unbound [5]: 0.0007; half-life [6]: 1.2 h; Vd [7]: 0.15 L/kg; CL [8]: 3600 mL/min/kg; clearance [9]: 1.6 mL/min/kg
22 | 25 | > 50 | 11 | 4400 | COc1cc(OC(F)(F)F)cc(-c2ccc3c(c2)CC[C@H](CCC(=O)O)O3)c1F | –
23 | 25 | > 50 | 8 | > 10000 | COc1cc(OC2CCC2)cc(-c2ccc3c(c2)CC[C@H]([C@@H]2C[C@H]2C(=O)O)O3)c1F | –
24 | 15 | > 50 | 9 | > 10000 | COc1cc(OC2CCC2)cc(-c2ccc3c(c2)CC[C@H](CCC(=O)O)O3)c1F | –
25 | 15 | > 50 | 6.2 | > 10000 | COc1cc(OC2CCC2)nc(-c2ccc3c(c2)CC[C@H](CCC(=O)O)O3)c1F | –
26 | 14 | > 50 | 5 | > 10000 | COc1cc(O[C@H]2C[C@H](OC)C2)nc(-c2ccc3c(c2)CC[C@H](CCC(=O)O)O3)c1F | concentration at 3 h [15]: 27.6 µM; fraction unbound [5]: 0.0032; EC50 [16]: 5.6 nM; half-life [6]: 2.4 h; Vd [7]: 0.49 L/kg; CL [8]: 760 mL/min/kg; EC50 [17]: 4.6 nM; EC50 [18]: > 10000 nM; clearance [9]: 3.4 mL/min/kg; concentration at 3 h [19]: 33.5 µM; Activity (Mus musculus [20]): Active
27 | 14 | > 50 | 5.6 | > 10000 | Cc1cnc(Oc2cc(Cl)c(F)c(-c3ccc4c(c3)CC[C@H](CCC(=O)O)O4)c2)s1 | fraction unbound [5]: 0.0003; half-life [6]: 0.93 h; Vd [7]: 0.14 L/kg; CL [8]: 6200 mL/min/kg; clearance [9]: 1.6 mL/min/kg
